Series [1] in a line: Example 1: percutaneous [3H]-4-hydroxy tamoxifen delivery, radioactivity in breast tissue and blood of breast cancer patients. The format is in vivo, human.
Experimental: The patients received [^3H]-labeled drug applied directly on the affected breasts at specified intervals ranging from 12 hours to 7 days before surgery to excise diseased tissue. Breast tissue from three regions: the tumor, tissue immediately surrounding the tumor, and normal tissue, was excised and immediately frozen in liquid nitrogen. Additionally, plasma and urine samples were obtained at scheduled intervals and frozen until analysis.
Series [2] in a line: Example 3: plasma pharmacokinetics of 4-hydroxy tamoxifen gel in healthy premenopausal women. The format is in vivo, human. The note with it: for t1/2 (Range): 57 mg/100 g gel, last administration.
Experimental: Each participant applied the gel daily for the duration of two menstrual cycles.
At the end of a menstrual cycle, each patient received a single dose, after which serial blood samples were collected at 0, 0.5, 1, 1.5, 2, 3, 4, 6, 12, 18, 24, 36, 48, and 72 hours.
On the first day of the following menstruation, treatment, which consisted of daily application of the gel over two menstrual cycles, began. Blood samples were collected 24 hours following the morning application of gel on days 7, 20 and 25 of the first and second cycles. On the last day of administration, day 25 of the second menstrual cycle, serial blood samples were collected prior to application and at 0.5, 1, 1.5, 2, 3, 4, 6, 12, 18, 24, 36, 48, and 72 hours after application of the gel.
Series [3] concerns Ki67 antigen (tumor tissue proliferation index). Briefly: Example 4: Ki67 labeling index in breast tumor tissue. Type of series: in vivo, human. As to conditions: for mean Ki-67 LI scores after treatment compared to the untreated group: adjusted for baseline, P=0.0054.
Text: Participants in the study were postmenopausal women diagnosed with estrogen receptor positive invasive breast cancer, as determined by Trucut biopsy. Criteria for enrollment included age >50 years, histologically confirmed T1 or T2 estrogen receptor positive primary breast cancer, and fit for surgery within 1 month of the biopsy. Patients with inflammatory cancer, known metastasis or lymph node involvement were excluded as were patients with previous radiotherapy or chemotherapy and ongoing hormone replacement therapy (a minimum washout period of 8 days was observed before the Tru-cut biopsy). Other exclusion criteria were a history of thrombophlebitis requiring anticoagulant treatment, retinopathy, cutaneous allergy to alcohol or mammary dermatitis contraindicating the application of a gel.
Patients were scheduled for tumor resection surgery with curative intent between day 15 and day 22 after the start of treatment. On the day prior to surgery, a blood sample was also obtained for determination of 4-OHT concentrations. […]
Ki67 and Proliferating Cell Nuclear Antigen (PCNA) labeling indices (LI) were assessed on paraffin embedded sections of the pre- and post-treatment tissue specimens. The Ki67 antigen was assessed using the monoclonal antibody MIB 1 (DAKO, Denmark) as used in routine conditions in pathology. […] Six serial sections were analyzed per case in order to standardize sampling. […] For each preparation, optical density (OD) thresholds were determined using real microscopic images of the analyzed field as reference. […] Twenty fields were analyzed for each section. Stained nuclear surface was determined (segmentation and thresholding) and a LI scored (stained cells/counterstained elements). […] Control of immunostaining quantitative analysis and reproducibility of the procedure were performed: —by comparison to iterative measurements done on the same preparations, —by comparison to measurements compiled on six sequential sections of the same specimen. […] Results were expressed as LI.
Series [4] can be described thus: Example 4: 4-OHT assay in plasma, tumor tissue and normal tissue (GC-MS NICI). The note with it: 2-3 weeks. Type of series: in vivo, human. The text has this:
Patients were scheduled for tumor resection surgery with curative intent between day 15 and day 22 after the start of treatment. On the day prior to surgery, a blood sample was also obtained for determination of 4-OHT concentrations. On the day of surgery, patients were reassessed for concomitant therapy, concomitant conditions, hematology, biochemistry, plasma 4-OHT, estrone (E1), and estradiol (E2) concentrations.
Concentrations of 4-OHT in plasma, tumor tissue, and normal tissue were performed using Gas Chromatography (GC) combined with Mass Spectrometry (MS) used in the Negative Ion Chemical Ionization-mode (NICI) (Girault, 1993). The quantification limits of the method were 5 pg/ml for the plasma and 50 pg/g for tissue samples respectively. Tumor extracts and normal breast tissue obtained at the time of surgery (after treatment) were stored in liquid nitrogen until subsequent assay of 4-OHT.

The target in the next series is T1, estrone sulphatase (Homo sapiens, UniProt P08842).
T1 construct: estrone sulphatase activity in mammary cancer cell lines
T1 sequence (P08842 22-583): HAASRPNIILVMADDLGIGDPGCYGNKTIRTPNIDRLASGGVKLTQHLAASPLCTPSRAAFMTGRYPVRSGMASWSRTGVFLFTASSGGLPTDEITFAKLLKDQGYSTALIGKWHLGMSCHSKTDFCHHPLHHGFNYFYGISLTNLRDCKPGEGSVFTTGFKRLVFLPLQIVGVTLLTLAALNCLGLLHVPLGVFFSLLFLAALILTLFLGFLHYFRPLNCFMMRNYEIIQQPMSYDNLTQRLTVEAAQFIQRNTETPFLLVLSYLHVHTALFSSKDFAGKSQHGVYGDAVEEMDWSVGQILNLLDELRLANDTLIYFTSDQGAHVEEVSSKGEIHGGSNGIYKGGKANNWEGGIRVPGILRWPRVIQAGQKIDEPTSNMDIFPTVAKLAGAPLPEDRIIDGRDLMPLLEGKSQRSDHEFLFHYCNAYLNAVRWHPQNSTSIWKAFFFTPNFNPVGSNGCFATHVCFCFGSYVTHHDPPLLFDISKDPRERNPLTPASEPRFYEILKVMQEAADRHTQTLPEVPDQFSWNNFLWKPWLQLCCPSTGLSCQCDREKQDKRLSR
As to conditions: mammary cancer cell lines; cited from earlier work.

For another series, the system named is estrogen receptors. The note with it: in vitro; cited from earlier work.
Series [5] deals with p53(−) normal human mammary epithelial cells. As to conditions: cited from earlier work.
For series [6] the following is noted: cited from earlier work.
Setting [7] is: 12 hr after percutaneous Z-[3H]-4-hydroxy tamoxifen.
The mark [8] stands for this setting: 24 hours after percutaneous [3H]-4-hydroxy tamoxifen.
The mark [9] stands for this setting: 24 hr after percutaneous Z-[3H]-4-hydroxy tamoxifen.
Where [10] appears, read: 36 hr after percutaneous Z-[3H]-4-hydroxy tamoxifen.
Where [11] appears, read: Day 4 after percutaneous Z-[3H]-4-hydroxy tamoxifen.
Where [12] appears, read: Day 7 after percutaneous Z-[3H]-4-hydroxy tamoxifen.

Turning to `CCC(=C(c1ccc(O)cc1)c1ccc(OCCN(C)C)cc1)c1ccccc1` (single isomer, unassigned) [E isomer], the “% Metabolites in Breast Tissue” value in series [1] (human, in vivo) came out at 33%.

As for `CCC(=C(c1ccc(O)cc1)c1ccc(OCCN(C)C)cc1)c1ccccc1` [4-hydroxy tamoxifen, 1-[4-(2-N-dimethylaminoethoxy)phenyl]-1-(4-hydroxyphenyl)-2-phenylbut-1-ene], in series [1] (human, in vivo), the “% of radioactivity in blood” value is 68%, the “radioactivity administered that showed in the blood” value is listed as 0.5%, the “retention in the breast” value is listed as “approximately 4 days” and the “time of plateau of radioactivity in blood” value is reported as 4 to 6 days. In addition, in series [2] (1 mg/day), the “t1/2 (Range)” value is on record as “(58-118) hr”. Moreover, the “t1/2 (Range)” value in series [2] (2 mg/day) is “(49-101) hr”. In series [2] (72 hours after the last gel application), the “plasma concentrations after the last gel application” value is “remained detectable”. The “plasma concentrations of 4-hydroxy tamoxifen after a single dose” value in series [2] (single 0.5 mg dose) was “did not produce detectable plasma concentrations”. The “patients with detectable plasma concentrations (>5 pg/mL)” value in series [2] (single dose of 1 mg) is 6 of 12. In addition, the “plasma concentrations of 4-hydroxy tamoxifen versus typical estradiol concentrations” value in series [2] (topical application, 0.5-2 mg/day) is less than 0.08 ng/mL. The “dose dependence of mean Ki-67 LI score after treatment” value in series [3] (0.5, 1.0, 2.0 mg/d) is recorded as “dose-dependent”. For the same compound, the “mean Ki-67 LI scores after treatment compared to the untreated group” value in series [3] was “significantly lower”. Besides, the “4-OHT concentration in Tumor, Median (min:max)” value (from here on “4-OHT concentration in Tumor”) in series [4] (gel 0.5 mg/d) is on record as 687 pg/g. The “4-OHT concentration in Tumor” value in series [4] (gel 1.0 mg/d) amounted to 1377 pg/g. In series [4] (gel 2.0 mg/d), the “4-OHT concentration in Tumor” value is on record as 1698 pg/g. Besides, at estrone sulphatase, the “effect on estrone sulphatase activity” value is “significant inhibitory effect”. Also, the “potency as measured by binding affinity to estrogen receptors, compared with tamoxifen” value in the series on estrogen receptors is on record as “more potency than tamoxifen”.

As for `CCC(=C(c1ccc(O)cc1)c1ccc(O)cc1)c1ccccc1` [Bisphenol], the “% Metabolites in Breast Tissue” value amounted to 1% in series [1] (setting [7]); 2% in series [1] (setting [9]); 3% in series [1] (setting [10]); 8% in series [1] (setting [11]); 8% in series [1] (setting [12]). Besides, the “% of radioactivity in blood” value in series [1] (setting [8]) is listed as 11%.

Consider `CCC(=C(c1ccc(O)cc1)c1ccc(OCCNC)cc1)c1ccccc1` [N-Desmethyl-4-Hydroxy Tamoxifen], for which the “% Metabolites in Breast Tissue” value in series [1] (setting [7]) came to 2%; in series [1] (setting [9]), 4%; in series [1] (setting [10]), 14%; in series [1] (setting [11]), 20%; in series [1] (setting [12]), 16%. In series [1] (setting [8]), the “% of radioactivity in blood” value worked out at 18%.

With `CC/C(=C(\c1ccc(O)cc1)c1ccc(OCCN(C)C)cc1)c1ccccc1` [Z-4-hydroxy tamoxifen], the “% Metabolites in Breast Tissue” value in series [1] (human, in vivo) stood at 32%.

As to `CC/C(=C(\c1ccccc1)c1ccc(OCCN(C)C)cc1)c1ccccc1` [tamoxifen, reference compound], the “% Metabolites in Breast Tissue” value in series [1] (setting [11]) is reported as less than 1%; in series [1] (setting [12]), 2%. Further, the “time of plateau of radioactivity in blood” value in series [1] (percutaneous application) was determined as 2 days. Moreover, the “retention in the breast” value in series [1] (percutaneous application to the affected breast) is “shorter and far weaker”. Besides, in series [3], the “mean Ki-67 LI scores after treatment compared to the untreated group” value is given as “significantly lower”. Also, the initiation of apoptosis entry in series [5] is on record as “initiates apoptosis”. For the same compound, the “effect on estrone sulphatase activity” value on estrone sulphatase is “little or no effect”. Further, the rat liver carcinogenicity entry in series [6] is on record as “potent rat liver carcinogen”.

Values taken from US8475814B2 (priority 2003, dated 2013).
